Test results from patent US20060142171A1, “Novel alkaline protease” (priority 2003, published 2006).
Starred links: 1 amine or outer side, 2 acyl side, 3 side chain; linkers in the order of their positions; H or OH if unused. Non-standard residues stand in square brackets, D forms with d. Residues, ends and D or L forms follow the SMILES beside them. *: point of attachment. Sta = CC(C)C[C@H](N)[C@@H](O)CC(=O)O; pNA = O=[N+]([O-])c1ccc(N*)cc1; Suc = O=C(CCC(=O)[*:2])[*:1]; Isovaleryl = CC(C)CC(=O)*

Legend:
AL protease [1] = target: T1, AL protease (Nesterenkonia aethiopica, UniProt D0VWT7); experiment: biochemical; type: biochemical, Nesterenkonia sp. AL
Method: (§1) Protease activity was determined using casein as substrate as described earlier [3.12]. The reaction mixture in a total volume of 2 ml was composed of 1% casein, 50 mM glycine-NaOH buffer, pH 10, and appropriately diluted enzyme. After 20 min incubation at 50° C. the reaction was terminated by adding equal volume of 10% trichloroacetic acid (TCA). After separation of the unreacted casein precipitate by centrifugation, 0.5 ml of clear supernatant was mixed with 2.5 ml of 0.5 M Na2CO3 and 0.5 ml of 1 N Folin-Ciocalteau's phenol reagent. After 30 min at 25° C., absorbance was measured at 660 nm against a reagent blank. One unit of protease activity was defined as the amount of enzyme that released 1 μg of amino acid equivalent to tyrosine per min under the standard assay conditions.
(§2) AL protease was also not inhibited by inhibitors of cysteine proteases, aspartate proteases and metal proteases (Table 5). The effect of another serine protease specific inhibitor, 3,4-dichlorocoumarin at a concentration of 100 μM on the protease activity was investigated.

AL-89 protease = experiment: Effect of protease inhibitors on AL-89 protease activity; type: biochemical, Bacillus pseudofirmus AL-89; details: for Remaining activity (%): AL-89 protease, incubated 1 h at 30° C.
Method: as §1, §2

AL protease [2] = target: T1, AL protease; experiment: Assay with synthetic peptide, pNA, AMC, NNap and ester substrates (kinetic parameters); type: biochemical, Nesterenkonia sp. AL; details: for Hydrolysis of synthetic substrate by AL protease: result in words
Method: The AL protease activity toward a variety of commercially available synthetic peptide substrates was assayed. The incubation volume was always 1 ml in which 10 μl enzyme solution; 0.76 mg protein/ml was used unless otherwise stated. Initial reaction rates were fitted to the Michaelis-Menten equation, and kinetic parameters, kcat and Km were determined.
Fluorometric assay for Suc-L-Y-AMC, Suc-A-A-F-AMC, Suc-I-I-W-AMC, Suc-A-A-K-AMC, NA-Bz-R-AMC, Suc-L-L-V-Y-AMC, Suc-F-G-L-β-NNap, Suc-L-β-NNap (Sigma) was performed in 50 mM glycine-NaOH buffer, pH 10 at 25° C. The substrate concentration range was from 0.05 to 10 mM except for Suc-L-L-V-Y-AMC (0.1-25 μM). Fluorescence was monitored with a SPEX Fluorolog spectrometer, in a 1×1 cm quartz cuvette placed in a thermostat cuvette holder, using excitation wavelength of 345 nm, emission wavelength 442 nm slit width 5 nm for AMC substrate and excitation wavelength of 340 nm, emission wavelength of 410 and slit width 5 nm for β-NNap substrates. A standard solution of AMC and β-naphthylamine was used to convert the fluorescence values to product concentrations.
Activity with p-nitroanilide substrates was tested at 25° C. in 50 mM Tris-HCl buffer, pH 9. Following substrates were used: Bz-Tyr-pNA (Sigma), BAPNA, Suc-Phe-pNA, Suc-A-A-P-F-pNA, Suc-A-A-P-L-pNA, Suc-G-G-G-pNA, Suc-A-A-A-pNA, Suc-A-A-V-pNA (Bachem Feinchemikalien AG (Bubendorf, Switzerland), and S-benzyl-L-cysteine-4-nitroanilide (Fluka Chemie AG, Buchs, Switzerland). The release of p-nitroanilide (pNA) was measured at 410 nm. Extinction coefficient (E) of pNA was taken to be 8480 M^−1 cm^−1. Initial reaction rates were determined over a concentration range of 0.05-10 mM for most substrates, excluding Suc-A-A-P-L-pNA (0.05-20 mM), and S-benzyl-L-Cysteine-4-nitroanilide (0.05-80 mM).
Hydrolytic activity of the enzyme on the ester substrates, BAEE, BTEE, Bz-F-NE, p-nitrophenyl acetate, p-nitrophenyl butyrate and Suc-F-L-F-SBzl (Sigma) was examined spectrophotometrically at 410 nm (ε410=900 M^−1cm^−1) in 50 mM Tris-HCl buffer, pH 9 at 25° C. and 50° C. respectively. The substrates concentration range between 0.05 to 10 mM. The Initial hydrolysis of BAEE, Suc-F-L-F-SBzl was followed at 253 nm (ε253=1150 M^−1cm^−1) and BTEE at 259 nm (ε259=964 M^−1cm^−1), at which their extinction coefficients were taken in calculation.
Due to the poor aqueous solubility of some of the substrates, their stock solutions were prepared in organic solvents, and further dilution was done with the used buffer. Suc-F-G-L-β-NNap, Suc-L-L-V-Y-AMC, Suc-L-Y-AMC, Suc-A-A-F-AMC, Suc-I-I-W-AMC, Suc-A-A-K-AMC, NA-Bz-R-AMC and Bz-Tyr-pNA, Suc-F-L-F-SBzl and Bz-F-βNE were dissolved in dimethylsulfoxide (DMSO), Suc-Phe-pNA, BTEE and BAPNA in ethanol, Suc-A-A-A-pNA in N,N-dimethylformamide (DMF), and Bz-Cys-NA in acetonitrile.
In these cases the kcat/Km was calculated from velocity measurements at low substrate concentration [S]<<Km, where v=(kcat/Km)[E]0 [S].

[3] = AL protease, inhibitor 10 mM, incubated 1 h at 30° C.
[4] = substrate marked b (footnote not given), pNA and ester substrates, 50 mM Tris-HCl buffer, pH 9
[5] = substrate marked a (footnote not given), AMC substrate, 50 mM glycine-NaOH buffer, pH 10 at 25° C.

T1 sequence (D0VWT7 entry or part of it): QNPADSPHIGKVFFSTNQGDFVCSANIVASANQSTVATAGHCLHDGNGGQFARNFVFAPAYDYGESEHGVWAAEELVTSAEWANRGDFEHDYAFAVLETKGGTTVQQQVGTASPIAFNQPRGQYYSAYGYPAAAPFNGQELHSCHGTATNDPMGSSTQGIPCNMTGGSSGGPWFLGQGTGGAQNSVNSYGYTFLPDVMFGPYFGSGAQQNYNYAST

Compound: O=S(=O)(F)Cc1ccccc1 [PMSF, phenyl-methanesulfonyl fluoride]
- Remaining activity (%) (AL protease [1]; AL protease, inhibitor 1 mM, incubated 1 h at 30° C.): 100%
- Remaining activity (%) (AL protease [1]; [3]): 108%
- Inhibition of AL protease activity (AL protease [1]; result in words, PMSF up to 10 mM, others at concentrations of Table 5): did not inhibit
- Remaining activity (%) (AL-89 protease; inhibitor 1 mM): 0%
- Remaining activity (%) (AL-89 protease; inhibitor 10 mM): 0%
- Inhibition of AL-89 protease activity (AL-89 protease; result in words, 1 mM): totally inhibited

Compound: O=C(O)CN(CCN(CC(=O)O)CC(=O)O)CC(=O)O [EDTA, ethylenediamino tetraacetate]
- Remaining activity (%) (AL protease [1]; [3]): 99%
- Remaining activity (%) (AL-89 protease; inhibitor 10 mM): 98%

Compound: CC(C)CC(=O)N[C@H](C(=O)N[C@H](C(=O)N[C@@H](CC(C)C)[C@@H](O)CC(=O)N[C@@H](C)C(=O)N[C@@H](CC(C)C)[C@@H](O)CC(=O)O)C(C)C)C(C)C [Pepstatin] (Isovaleryl-VV[Sta]A[Sta]-OH)
- remaining activity at 100 µM (AL protease [1]; AL protease, inhibitor 0.1 mM, incubated 1 h at 30° C.): 102%
- Remaining activity (%) (AL-89 protease; inhibitor 0.1 mM): 100%

Compound: N-succinyl-Ala-Ala-Val-p-nitroanilide (Suc-Ala-Ala-Val-pNA; SMILES CC(C)[C@H](NC(=O)[C@H](C)NC(=O)[C@H](C)NC(=O)CCC(=O)O)C(=O)Nc1ccc([N+](=O)[O-])cc1) [Suc-A-A-V-pNA]
- Hydrolysis of synthetic substrate by AL protease (AL protease [2]): unable to hydrolyze

Compound: N-succinyl-Ala-Ala-Pro-Leu-p-nitroanilide (Suc-AAPL-pNA; SMILES CC(C)C[C@H](NC(=O)[C@@H]1CCCN1C(=O)[C@H](C)NC(=O)[C@H](C)NC(=O)CCC(=O)O)C(=O)Nc1ccc([N+](=O)[O-])cc1) [Suc-A-A-P-L-pNA]
- Hydrolysis of synthetic substrate by AL protease (AL protease [2]): remarkable hydrolyzing activity
- Km (AL protease [2]; [4]): 9300 µM
- kcat (AL protease [2]; [4]): 6646.19 s⁻¹

Compound: N=C(N)NCCCC(NC(=O)c1ccccc1)C(=O)Nc1ccc([N+](=O)[O-])cc1 (racemic) [BAPNA, Nα-benzoyl-D,L-arginine-p-nitroanilide]
- Hydrolysis of synthetic substrate by AL protease (AL protease [2]): did not show detectable activity

Compound: c1cnc2c(c1)ccc1cccnc12 [1,10-Phenanthroline]
- remaining activity at 10000 µM (AL protease [1]; [3]): 113%
- Remaining activity (%) (AL-89 protease; inhibitor 10 mM): 75%

Compound: O=C(O)CCC(=O)N[C@@H](Cc1ccccc1)C(=O)Nc1ccc([N+](=O)[O-])cc1 [Suc-Phe-pNA, N-succinyl-phenylalanine-p-nitroanilide]
- Hydrolysis of synthetic substrate by AL protease (AL protease [2]): did not show detectable activity

Compound: CC(=O)Oc1ccc([N+](=O)[O-])cc1 [p-nitrophenyl acetate]
- Hydrolysis of synthetic substrate by AL protease (AL protease [2]): unable to cleave

Compound: N-succinyl-Gly-Gly-Gly-p-nitroanilide (Suc-Gly-Gly-Gly-pNA; SMILES O=C(O)CCC(=O)NCC(=O)NCC(=O)NCC(=O)Nc1ccc([N+](=O)[O-])cc1) [Suc-G-G-G-pNA]
- Hydrolysis of synthetic substrate by AL protease (AL protease [2]): unable to hydrolyze

Compound: N-Succinyl-Ala-Ala-Ala-p-nitroanilide [Suc-A-A-A-pNA]
- Hydrolysis of synthetic substrate by AL protease (AL protease [2]): unable to hydrolyze

Compound: N-succinyl-Ala-Ala-Pro-Phe-p-nitroanilide (Suc-AAPF-pNA) [Suc-A-A-P-F-pNA]
- Hydrolysis of synthetic substrate by AL protease (AL protease [2]): remarkable hydrolyzing activity
- Km (AL protease [2]; [4]): 2970 µM
- kcat (AL protease [2]; [4]): 4391.46 s⁻¹

Compound: N-succinyl-Leu-Leu-Val-Tyr-7-amino-4-methyl coumarin [Suc-L-L-V-Y-AMC]
- kcat/Km higher than that for Suc-A-A-P-F-pNA and Suc-A-A-P-L-pNA (AL protease [2]; AL protease): 2.5-5 fold
- Hydrolysis of synthetic substrate by AL protease (AL protease [2]): remarkable hydrolyzing activity
- Km (AL protease [2]; [5]): 15 µM
- kcat (AL protease [2]; [5]): 51.68 s⁻¹

Compound: O=C(O)c1cc[c]([Hg][Cl])cc1 [PCMBA]
- Remaining activity (%) (AL protease [1]; AL protease, inhibitor 5 mM, incubated 1 h at 30° C.): 99%
- Remaining activity (%) (AL-89 protease; inhibitor 5 mM): 91%
